Values joined by “and” are separate entries in the source; they are usually repeats but may differ in a detail not shown here. Equal entries are not always repeated. Where two headings read alike, the source gives them in different places.
Columns and labels:
[1] = system: IL-1β-stimulated PGE2 synthesis, bovine chondrocyte pellets / ARC tissues; test: chondrocyte pellet culture model: PGE2; assay type: cell-based; details: for PGE2 synthesis: 10 ng/ml IL-1β
From the text: Calf articular cartilage was obtained from the knee joints of eight to twelve month old animals and was processed within twenty-four hours after sacrifice. After removal of muscle and ligament, the cartilage was kept moist using phosphate buffer solution (PBS) to prevent tissue dehydration, and was aseptically peeled off from subchondral bone with a scalpel, and the cartilage pieces were further minced into smaller pieces (˜0.3-0.5×˜0.2-0.5 cm cubes). […] Chondrocytes were then enzymatically isolated from the tissue by incubation for overnight at 37° C. with gentle agitation in 0.2% collagenase in Dulbecco's modified eagle media (DMEM). After removal of tissue debris by filtration through cell strainer and the residual collagenase by 3× wash in PBS, cells were finally resuspended at a density of 2.5×10^6 cells/ml in chondrocyte medium. A 1 ml aliquot of the cell suspension was dispensed into either a 15 ml Falcon centrifuge tube or a 96 deep-well plate and centrifuged at 2000×g for five minutes. The chondrocyte pellets were incubated at 37° C. in a humidified atmosphere of 5% CO2 for two to three weeks with a medium change every other day.
As an alternative to using calf articular cartilage, a commercial Alginate Recovered Chondrocytes (ARC) system was also used (Articular Engineering, LLC (Northbrook, Ill.)). Use of the commercial system cut down on labor and time in producing chondrocyte pellet. This system produced cartilaginous tissue in vitro using bovine chondrocytes. The first step consisted of culturing chondrocytes in alginate under conditions optimal for the formation of a cell-associated matrix (CM). The second step allowed these cells with their CM, after recovery, to rapidly form and become integrated into a solid mass of cartilage on a porous insert within two weeks. This tissue is rich in cells surrounded by a cell-associated matrix that is degraded rapidly when the cells are exposed to IL-1. ARC tissues in 3 mm punches at delivery were first dispensed into a 96 deep-well plate, one punch per well, for compound treatment. The subsequent procedures were the same as those used for the chondrocyte pellets.
Chondrocyte pellets were washed once with 1 ml of Chondrocyte Stimulation Medium and equilibrated in the same medium at room temperature for fifteen to thirty minutes. Compounds were dissolved in H2O, Ethanol or dimethyl sulfoxide (DMSO) (10^−2 M) according to suppliers' instructions and further diluted with Chondrocyte Stimulation Medium to the required concentrations. DMSO concentrations in the culture media should not exceed 1%; this concentration of DMSO has no effect on cartilage proteoglycan metabolism in response to cytokines.
The pellets were first treated with compounds at desired concentrations at 37° C. for one hour and then incubated for three to five days in the absence or presence of 10 ng/ml of IL-1β. At the end of the incubation, media and pellets were harvested and frozen for further analysis. Pellets were also fixed as needed in 4% (w/v) paraformaldehyde in PBS for histology analysis.
Prostaglandin E2 (PGE2) was measured with a STAT-Prostaglandin E2 EIA ELISA kit (Cayman Biochemicals). This assay is based on the competition between PGE2 from 50 μl samples and a PGE2-alkaline phosphatase conjugate for a limited amount of PGE2 monoclonal antibody in a reaction volume of 150 μl at room temperature for one hour. The antibody-PGE2 complex bound to a goat polyclonal anti-mouse IgG that had been previously attached to the well. After washing to remove any unbound reagents, para-nitrophenyl phosphate (pNPP) was added to the well. The product of this enzymatic reaction absorbs strongly at 412 nm. Because of the large range in response to IL-1β and other cytokines, PGE2 values were converted to log scale prior to doing t-tests.

solubility = assay type: physicochemical
chondrocytes = assay type: cell-based
Method in brief: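 Bovine chondrocyte pellets (calf articular cartilage, or alginate-recovered chondrocyte tissue punches) pretreated with compounds 1 h at 37 °C, then incubated 3-5 days with or without 10 ng/ml IL-1β, DMSO ≤1%. Media LDH activity measured colorimetrically via lactate-to-pyruvate conversion reducing INT tetrazolium to formazan.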

[2] = system: rabbit anterior cruciate ligament transection (ACLT) model of osteoarthritis; test: ACLT model, preventative dosing regimen (Example IX); assay type: in vivo; design: key to Trochlear Groove Erosion of Cartilage, mean score / Tibial Plateau # of Osteophytes (Medial), mean score: gross grading scale; higher score = more joint damage; key to All Condylar Effects (0-18), mean: score 0-18; higher = more joint damage
Experimental: 130 Female New Zealand white rabbits underwent ACLT on the right knee. Intra-articular injections were administered to the operated knee once per week for five weeks beginning either one or six weeks after the ACLT. All animals were euthanized one week after the administration of the fifth injection. Gross observations were made on the knee joints according to a predetermined grading scale. The stifle joints were removed. Samples were preserved in 10% neutral buffered formalin. The stifle joints were photographed using high-resolution photography.
The ACLT was performed according to the ACLT model discussed above. Animals were group housed in pens on the floor and left untreated for one week to allow healing of the surgical site. Then, once weekly for five weeks, intra-articular injections were administered. One week following the last injection, the animals were sacrificed. The total in-life portion of the preventative dosing regimen was […]. Previous studies have confirmed that the six week time-point allows sufficient degeneration changes to occur.
The study design consisted of an n=10 per group. A total of 160 μl was injected at each administration.
At the time of sacrifice the following parameters were evaluated grossly (the scale follows in parenthesis):
Each parameter was given a score. The combination of all parameters gave a Total Score (0-52). Additionally, combinations of the three subsets of data yielded scores for All Trochlear Groove Effects (0-10), All Condylar Effects (0-18) and All Tibial Plateau Effects (0-24). […] […] The grades that compose this parameter are trochlear groove thickness and erosion, all the grades in All Condylar Effects, and all grades listed under Tibial Plateau. A higher score indicates more damage to the joint. A lower score indicates less damage or more cartilage preservation in the joint. Individual results for each parameter assessed were tabulated.

[3] = within the tested concentrations

SMILES | All Cartilage Effects (0-40), mean [2] | All Condylar Effects (0-18), mean [2] | All Tibial Plateau Effects (0-24), mean [2] | All Trochlear Groove Effects (0-10), mean [2] | Femoral Condyle % Surface Area Erosion (Lateral), mean score [2] | Femoral Condyle % Surface Area Erosion (Medial), mean score [2] | Femoral Condyle Depth of Erosion (Lateral), mean score [2] | Femoral Condyle Depth of Erosion (Medial), mean score [2] | Femoral Condyle Presence of Clefts, mean score [2] | Tibial Plateau # of Osteophytes (Lateral), mean score [2] | Tibial Plateau # of Osteophytes (Medial), mean score [2] | Tibial Plateau % Surface Area Erosion (Lateral), mean score [2] | Tibial Plateau % Surface Area Erosion (Medial), mean score [2] | Tibial Plateau Depth of Erosion (Lateral), mean score [2] | Tibial Plateau Depth of Erosion (Medial), mean score [2] | Tibial Plateau Presence of Clefts (Lateral), mean score [2] | Tibial Plateau Presence of Clefts (Medial), mean score [2] | Total Score (0-52), mean [2] | Trochlear Groove # of Osteophytes, mean score [2] | Trochlear Groove Erosion of Cartilage, mean score [2] | further results
C[C@H](Nc1nccc(-c2c(-c3ccc(F)cc3)nc3nc(N)ccn23)n1)c1ccccc1 [JNJ 7583979 (RWJ 351958)] |  |  |  |  |  |  |  |  |  |  |  |  |  |  |  |  |  |  |  |  | PGE2 synthesis ([1]; ARC): significantly inhibited; water solubility (solubility): poor water solubility; cytotoxicity to chondrocytes (LDH, words) (chondrocytes; [3]): little cytoxicity
CC(=O)N1CCN(c2c(-c3ccncc3)c(-c3ccc(F)cc3)c(C#N)n2C)CC1 [JNJ 17089540 (RWJ 669307)] | 5.8+2.0 and 5.8 | 2.7 ± 1.3 and 2.7 | 4.1 | 6.2 | 1.2 | 0.3+0.3 and 0.3 | 0.2+0.2 and 0.2 | 0.2+0.2 and 0.2 | 0 | 0.4 | 1.4 | 1.3 | 0 | 0.8 | 0 | 0 | 0 | 12.9 ± 2.3 and 12.9 | 2.6 | 1.0 | IC50 ([1]; Pellet Assay, read-out: PGE2 Inhibition IC50): 29.6 µM; IC50 ([1]; bovine ARC, 7.5 ng/ml IL-1β, five days, read-out: PGE2 IC50): 29.6 µM; water solubility (solubility; HCl salt): > 100 mg/mL; cytotoxicity to chondrocytes (LDH, words) (chondrocytes): little cytoxicity; Trochlear Groove Osteophyte Size, mean score [2]: 2.7; Trochlear Groove Thickening, mean score [2]: 0
OCCC#Cc1nc(-c2ccc(F)cc2)c(-c2ccncc2)n1CCCc1ccccc1 [JNJ 3026582 (RWJ 67657), 4-[4-(4-fluorophenyl)-1-(3-phenylpropyl)-5-(4-pyridinyl)-1H-imidazol-2-yl]-3-butyn-1-ol] | 4.3+1.8 and 4.3 | 1.6 ± 1.3 and 1.6 | 3.7 | 6.6 | 0.4 ± 0.3 and 0.4 | 0.5 ± 0.4 and 0.5 | 0.4 ± 0.3 and 0.4 | 0.3+0.3 and 0.3 | 0 | 0.6 | 1.7 | 0.7 | 0 | 0.7 | 0 | 0 | 0 | 11.9 ± 2.2 and 11.9 | 2.8 | 1.3 | water solubility (solubility): poor water solubility; pH at which soluble (solubility; soluble at pH<2): < 2; cytotoxicity to chondrocytes (LDH, words) (chondrocytes; [3]): little cytoxicity; Trochlear Groove Osteophyte Size, mean score [2]: 2.5; Trochlear Groove Thickening, mean score [2]: 0
CC(=O)Oc1cccc2c1C(=O)c1c(OC(C)=O)cc(C(=O)O)cc1C2=O [Diacerein, reference compound] |  |  |  |  |  |  |  |  |  |  |  |  |  |  |  |  |  |  |  |  | PGE2 synthesis ([1]; diacerein at 5.4 μM, rhein at 0.35 μM): no effect
CC(C(=O)O)c1ccc(C(=O)c2cccs2)cc1 (centres unmarked) [Suprofen, reference compound] | 6.8 | 4.1 | 3.1 | 7.1 | 2.1 | 0.1+0.1 and 0.1 | 1.6 | 0.3+0.3 and 0.3 | 0 | 0.5 | 1.1 | 0.9 | 0 | 0.5 | 0 | 0 | 0 | 14.1 | 2.8 | 1.5 | Trochlear Groove Osteophyte Size, mean score [2]: 2.8; Trochlear Groove Thickening, mean score [2]: 0
